# Measured values: paper PMC6657668, “Porcine Beta-Defensin 2 Provides Protection Against Bacterial Infection by a Direct Bactericidal Activity and Alleviates Inflammation via Interference With the TLR4/NF-κB Pathway” (Frontiers in Immunology, 2019)
# Where a SMILES comes first, the peptide text is derived from it.
# Key:
# [1] = system: dextran sodium sulfate (DSS) in mice; conditions: ref [33], cited from earlier work
# Text: The antibiotic resistance of pathogenic bacteria has become a global threat ([30]). Defensins are natural peptides secreted by many species and implicated in resisting bacterial infection ([31]). PBD-2 is one of the defensins expressed in pigs. […] The invasion of S. Typhimurium can increase the expression of PBD-2 in porcine epithelial cells ([32]). […] PBD-2 also improves the growth perf ... || The colitis caused by S. Typhimurium mainly results from intestinal mucosal inflammation after the breakage of intestinal epithelial barrier by pathogens ([26]). […] AMPs have various structures which may lead to their different act ...
# S. Typhimurium = assay: Spleen and caecum weight ratios of mice infected with S. Typhimurium; conditions: PBD-2 expressed in TG mice; oral 2.5 × 10^8 CFU; legend: 24 h post-infection; WT n = 9, TG n = 8
# Procedure: Four infection experiments were conducted to determine the resistance to S. Typhimurium of the TG mice. For body weight measurements, 7 WT and 7 TG mice were orally administered with 2.5 × 10^8 CFU of S. Typhimurium, and the body weight of each mouse was measured on days 1, 2, 3, 4, and 5 after infection. For the detection of the tissue weight ratios, bacterial loads in tissues and tissue lesions after S. Typhimurium infection, 9 WT and 8 TG mice were orally administered with 2.5 × 10^8 CFU of S. Typhimurium. The spleen, caecum and body weights of the mice were weighed at 24 h post-infection. The bacterial loads in the tissues were also measured ([26]). The spleen and caecum were weighed and homogenized in cold PBS at a ratio of 4 ml per gram of tissue and coated plates. The bacterial numbers in the homogenates were counted by serially diluting the homogenates and spreading on plates. Caeca were harvested for histopathological analysis by using the methods described above. The intestinal damage, including epithelial damage, submucosal oedema, and neutrophil aggregation, was observed.
# [2] = PBD-2 overexpressed in TG pigs; ref [16]; cited from earlier work
# Text: The antibiotic resistance of pathogenic bacteria has become a global threat ([30]). Defensins are natural peptides secreted by many species and implicated in resisting bacterial infection ([31]). PBD-2 is one of the defensins expressed in pigs. […] The invasion of S. Typhimurium can increase the expression of PBD-2 in porcine epithelial cells ([32]). […] PBD-2 also improves the growth perf ...
# RAW 264.7 cells = assay: Cytokine levels of RAW 264.7 cells after treatment with S. Typhimurium (ELISA); format: cell-based, mouse; conditions: S. Typhimurium MOI = 10:1, 1 h, n = 6
# Procedure: RAW 264.7 cells and RAW 264.7 cells stably expressing PBD-2 were pre-treated with S. Typhimurium at MOI = 10:1 for 1 h or with LPS (1 μg/ml) for 16 h, washed with PBS twice and incubated with RPMI 1640 that contained PBS or PBD-2 (10 μg/mL) for 16 h. RAW 264.7 cells stably expressing PBD-2 were maintained in RPMI 1640 that contained PBS for 16 h (n = 6 for each group). The expression levels of proinflammatory cytokines in the cell culture supernatant were determined through ELISA in accordance with the manufacturer's instruction.
# ERK = assay: Western blot of ERK and p-ERK in RAW 264.7 cells; format: cell-based, mouse; conditions: LPS 30 min with various concentrations of PBD-2 (Figure S4)
# Procedure: […] […] Proteins were firstly analyzed with SDS-PAGE and then electro-transferred onto a PVDF (#ISEQ00010, Biosharp®, Beijing, China) membrane. The PVDF membrane was blocked with 1/100 bovine serum albumin (BSA, #V900933-100G, VETEC, Sigma-Aldrich®, St. Louis, MO, USA) at 10 μg/ml at 37°C for 2 h, washed with PBST five times, incubated with the antisera against p-p65 (# 3033), p65 (# 4764), p-ERK (# 4370), ERK (# 4695), p-p38 (# 4511), p38 (# 8690), p-JNK (# 4668), JNK (# 9258) (Cell Signaling Technology®, Danvers, MA, USA), and β-actin (# AA128, Beyotime®, Shanghai, China) at 2 μg/ml at 37°C for 2 h and washed five times again. The PVDF membrane was subsequently incubated with 1 μg/ml secondary antibody, namely, goat anti-rabbit IgG (# 7074S, Cell Signaling Technology®, Danvers, MA, USA), at 37°C for 2 h and washed five times. Lastly, immune-reactive bands were detected using an ECF Western blot system (Tanon 5200 Multi, Shanghai, China) and quantified using AlphaImager 2200 analysis software.
# Supplementary file Image_4.TIF: Figure S4 Effects of PBD-2 on ERK, p38, and JNK signaling pathways. Cells were treated with LPS for 30 min with or without various concentrations of PBD-2. The expression levels of ERK, p-ERK, p38, p-p38, JNK, p-JNK, and β-actin were examined by Western blot (A). The signal intensity of each band was quantified (B–D). Click here for additional data file.
# [3] = PBD-2 expressed in TG mice, uninfected, n ≥ 6, vs WT
# Procedure: After the mice were euthanized, blood samples of TG and WT mice were collected. Alanine aminotransferase, aspartate aminotransferase, albumin, globin, albumin/globin, total bilirubin, direct bilirubin, urea, creatinine, urea/creatinine, glucose, potassium, and sodium were analyzed using a blood routine analyser (Mindray, Shenzhen China). Their heart, liver, spleen, lung, kidney, brain and intestinal segments were harvested. The histological morphologies of the mice organs and the body and organ weights of male and female mice were characterized.
# (B) Comparison of body weights between TG and WT mice. (C) Comparison of weight ratios of organs, including heart, liver, spleen, lung, kidney, and brain (organ weight/body weight) between TG and WT mice. Data are represented as means ± SD (WT, n ≥ 6; TG, n ≥ 6).
# [4] = format: binding, Escherichia coli O55:B5; conditions: ITC, 25°C; PBD-2 0.75 mM in syringe, LPS in cell (0.010 to 0.050 mM; Figure S6: 0.050 mM)
# TLR4 = molecular target: T1, TLR4 (Mus musculus, UniProt Q9QUK6); assay: Interaction with TLR4, far-Western blot; format: binding; conditions: PBD-2 10 μg/ml, 37°C, 2 h
# T1 construct: purchased Cloud-clone, Wuhan, China RPA753Mu01
# T1 sequence (Q9QUK6 26-835): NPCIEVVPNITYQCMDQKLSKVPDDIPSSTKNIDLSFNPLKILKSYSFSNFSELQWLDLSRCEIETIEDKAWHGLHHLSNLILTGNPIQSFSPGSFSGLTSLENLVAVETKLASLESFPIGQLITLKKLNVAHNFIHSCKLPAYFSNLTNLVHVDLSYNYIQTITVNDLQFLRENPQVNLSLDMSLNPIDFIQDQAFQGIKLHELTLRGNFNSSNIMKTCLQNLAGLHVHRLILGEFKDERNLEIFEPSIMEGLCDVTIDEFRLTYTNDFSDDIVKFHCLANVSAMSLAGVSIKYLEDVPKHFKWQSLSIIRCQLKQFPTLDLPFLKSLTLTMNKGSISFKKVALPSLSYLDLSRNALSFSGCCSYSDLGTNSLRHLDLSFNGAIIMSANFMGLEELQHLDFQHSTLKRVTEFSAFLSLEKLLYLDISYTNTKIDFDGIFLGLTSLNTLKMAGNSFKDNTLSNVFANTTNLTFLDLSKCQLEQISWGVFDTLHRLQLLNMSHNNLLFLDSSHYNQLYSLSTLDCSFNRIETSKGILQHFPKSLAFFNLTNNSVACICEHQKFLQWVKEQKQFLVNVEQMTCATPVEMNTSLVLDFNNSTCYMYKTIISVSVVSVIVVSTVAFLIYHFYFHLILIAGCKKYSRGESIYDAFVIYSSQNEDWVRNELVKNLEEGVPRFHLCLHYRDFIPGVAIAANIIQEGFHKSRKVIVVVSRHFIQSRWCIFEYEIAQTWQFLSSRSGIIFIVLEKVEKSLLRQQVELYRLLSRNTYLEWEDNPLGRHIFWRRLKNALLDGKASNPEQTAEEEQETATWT
# Procedure: TLR4 and BSA proteins as a control were subject to SDS-PAGE and electro-transferred onto a PVDF membrane. The PVDF membrane was blocked with 10 μg/ml BSA in PBST at 37°C for 2 h, washed five times with PBST and incubated with PBST that contained 10 μg/ml PBD-2 or 10 μg/ml BSA as a control at 37°C for 2 h. After the membranes were washed, the PVDF membrane was incubated with anti-PBD-2 antisera (with a titer 1:500,000) at 37°C for 2 h and washed five times with PBST. The membrane was then incubated with the secondary antibodies, namely, goat anti-mouse IgG (# AS003, ABclonal®, Wuhan, China), at 37°C for 2 h and washed five times with PBST. Lastly, immune-reactive bands were detected using an ECF Western blot system (Tanon 5200 Multi, Shanghai, China).
# bacteria = conditions: ref [11], cited from earlier work
# Text: Another fact is that some vi ...
# [5] = PBD-2 expressed by RAW 264.7–PBD-2 cells
smiles,measurement,setting,value
"CC[C@H](C)[C@H](NC(=O)[C@@H]1CSSC[C@@H]2NC(=O)[C@@H]3CCCN3C(=O)[C@H](CO)NC(=O)[C@H](Cc3ccccc3)NC(=O)[C@H](CC(N)=O)NC(=O)[C@@H]3CSSC[C@H](NC(=O)[C@H]([C@@H](C)O)NC(=O)CNC(=O)[C@H](CCC(=O)O)NC(=O)[C@H]([C@@H](C)CC)NC(=O)[C@H](CCCNC(=N)N)NC(=O)[C@H](CC(N)=O)NC(=O)[C@H](Cc4ccccc4)NC(=O)[C@H](CC(C)C)NC(=O)[C@@H]4CCCN4C2=O)C(=O)N[C@@H](Cc2ccc(O)cc2)C(=O)N[C@@H](CO)C(=O)NCC(=O)N[C@@H](CCCCN)C(=O)N[C@@H](C)C(=O)N[C@@H](CCCCN)C(=O)N[C@@H](CSSC[C@H](NC(=O)[C@@H](NC(=O)[C@H](Cc2ccc(O)cc2)NC(=O)[C@H](Cc2c[nH]cn2)NC(=O)[C@@H](N)CC(=O)O)[C@@H](C)CC)C(=O)N[C@@H](C)C(=O)N[C@@H](CCCCN)C(=O)N[C@@H](CCCCN)C(=O)NCC(=O)NCC(=O)N[C@@H]([C@@H](C)O)C(=O)N3)C(=O)N1)C(=O)N[C@@H](CCCNC(=N)N)C(=O)O [PBD-2, Porcine beta-defensin 2] (HELM PEPTIDE1{D.H.Y.I.C.A.K.K.G.G.T.C.N.F.S.P.C.P.L.F.N.R.I.E.G.T.C.Y.S.G.K.A.K.C.C.I.R}$PEPTIDE1,PEPTIDE1,5:R3-34:R3|PEPTIDE1,PEPTIDE1,12:R3-27:R3|PEPTIDE1,PEPTIDE1,17:R3-35:R3$$$V2.0; N-terminus and C-terminus assumed)",mucosal damage caused by DSS,[1]; mice,alleviate mucosal damage caused by dextran sodium sulfate (DSS) in mice
same,"DSS-induced inflammation, NF-κB signaling",[1],suppresses the DSS-induced inflammation by suppressing the NF-κB signaling pathway
same,inflammation in DSS-induced colitis,[1],attenuates inflammation in DSS-induced colitis
same,"caecum weight ratio (organ weight/body weight), caecal enlargement",S. Typhimurium,the WT mice exhibited more severe splenic atrophy and caecal enlargement compared with the TG mice on day 2 post-infection (p < 0.05)
same,"spleen weight ratio (organ weight/body weight), splenic atrophy",S. Typhimurium,the WT mice exhibited more severe splenic atrophy and caecal enlargement compared with the TG mice on day 2 post-infection (p < 0.05)
same,bactericidal activity of the serum of TG pigs,[2],higher than that of WT pigs
same,level of IL-1β,RAW 264.7 cells; [5],significantly lower in the RAW 264.7–PBD-2 cells than in the RAW 264.7 cells after S. Typhimurium treatment (p < 0.01)
same,level of IL-6,RAW 264.7 cells; [5],significantly lower in the RAW 264.7–PBD-2 cells than in the RAW 264.7 cells after S. Typhimurium treatment (p < 0.01)
same,level of TNF-α,RAW 264.7 cells; [5],significantly lower in the RAW 264.7–PBD-2 cells than in the RAW 264.7 cells after S. Typhimurium treatment (p < 0.01)
same,secretion of IL-1β,"RAW 264.7 cells; synthetic PBD-2 10 μg/mL, 16 h","significantly inhibited the secretion of TNF-α, IL-6, and IL-1β after S. Typhimurium treatment (p < 0.05)"
same,secretion of IL-6,"RAW 264.7 cells; synthetic PBD-2 10 μg/mL, 16 h","significantly inhibited the secretion of TNF-α, IL-6, and IL-1β after S. Typhimurium treatment (p < 0.05)"
same,secretion of TNF-α,"RAW 264.7 cells; synthetic PBD-2 10 μg/mL, 16 h","significantly inhibited the secretion of TNF-α, IL-6, and IL-1β after S. Typhimurium treatment (p < 0.05)"
same,LPS-induced phosphorylation of ERK,ERK,"did not affect the LPS-induced phosphorylation of ERK, p38, and JNK"
same,ratio of organ weight to total body weight,"[3]; heart, liver, spleen, lung, kidney, brain",did not significantly differ from the WT mice in terms of body weight (Figure S1B) and the ratio of organ weight to total body weight
same,body weight,[3],did not significantly differ from the WT mice in terms of body weight
same,binding to LPS,[4],did not bind to LPS
same,binding to TLR4 on PVDF membrane,TLR4,could bind to TLR4
same,"antibacterial activity, concentration dependence",bacteria; in vitro,positively related to its concentration
same,bactericidal activity in vitro,bacteria,high and broad spectrum of bactericidal activity in vitro
